What was measured:
[1] = tested on: Arabidopsis T1 plants transformed with 24DT21 nucleotide sequence; test: Herbicide resistance effect test of transgenic Arabidopsis T1 plants (spraying); assay type: in vivo, Arabidopsis thaliana; details: genotype 24DT21, 560 g ae/ha (1x); for Non-resistant: number of plants of 32 dead 14 days after spraying; for Low resistant: number of plants of 32 incapable of bolting 14 days after spraying; for Moderate resistant: number of plants of 32 with curly rosette leaves 7 days after spraying; for High resistant: number of plants of 32 with growth consistent with blank solvent 7 days after spraying
Source text: (§1) 24DT21 gene was used to transform Arabidopsis for the first time. At first, T1 transformants were selected from the background of un-transformed seeds, using glufosinate-ammonium selection scheme. About 20000 T1 seeds are screened among which 139 strains of T1 generation positive transformants (PAT gene) were identified, i.e. the transformation efficiency was about 0.7%. Herbicide resistance effect tests to 2,4-D dimethyl ammonium salt and agroxone of Arabidopsis T1 plants transformed with 24DT21 nucleotide sequence, control nucleotide sequence respectively and wild-type Arabidopsis plants were performed after 18 days of planting.
(§2) Arabidopsis T1 plants transformed with 24DT21 nucleotide sequence, control nucleotide sequence respectively and wild-type Arabidopsis plants were sprayed with 2,4-D dimethyl ammonium salt (560 g ae/ha, 1-fold concentration in field), agroxone (560 g ae/ha, 1-fold concentration in field) and blank solvent (water). Resistance conditions of the plants were counted 7 days and 14 days after spraying. Plants with growth conditions consistent with blank solvent (water) 7 days after spaying were classified as highly resistant plants; Plants with curly rosette leaves 7 days after spaying were classified as moderately resistant plants; Plants incapable of bolting 14 days after spaying were classified as low-resistant plants and the dead plants 14 days after spaying were classified as non-resistant plants. Because each Arabidopsis T1 plant is an independent transformation event, significant differences of individual T1 responses can be expected under a given dose.

[2] = tested on: Arabidopsis T1 plants transformed with control nucleotide sequence; test: Herbicide resistance effect test of Arabidopsis T1 plants, control sequence (spraying); assay type: in vivo, Arabidopsis thaliana; details: genotype Control, 560 g ae/ha (1x); for Non-resistant: number of plants of 32 dead 14 days after spraying; for Low resistant: number of plants of 32 incapable of bolting 14 days after spraying; for Moderate resistant: number of plants of 32 with curly rosette leaves 7 days after spraying; for High resistant: number of plants of 32 with growth consistent with blank solvent 7 days after spraying
Source text: as §1, §2

[3] = tested on: wild-type Arabidopsis plants; test: Herbicide resistance effect test of wild-type Arabidopsis (spraying); assay type: in vivo, Arabidopsis thaliana; details: genotype Wild, 560 g ae/ha (1x); for Non-resistant: number of plants of 32 dead 14 days after spraying; for Low resistant: number of plants of 32 incapable of bolting 14 days after spraying; for Moderate resistant: number of plants of 32 with curly rosette leaves 7 days after spraying; for High resistant: number of plants of 32 with growth consistent with blank solvent 7 days after spraying
Source text: as §1, §2

[4] = tested on: Soybean plants containing 24DT21 nucleotide sequence (S1, S2, S3); test: Herbicide-resistance effect of transgenic soybean T1 plants (spraying, damage degree); assay type: in vivo; details: 2240 g ae/ha (4x); for Average damage % 6 HAT: 6 hours after spraying; for Average damage % 2 DAT: 2 days after spraying; for Average damage % 7 DAT: 7 days after spraying; for Average damage % 14 DAT: 14 days after spraying
Procedure: (§3) Herbicide resistance effects tests to 2,4-D dimethyl ammonium salt and agroxone of soybean plants containing 24DT21 nucleotide sequence and control nucleotide sequence respectively and wild type soybean plants (stages V3-V4) were performed respectively.
(§4) Soybean plants containing 24DT21 nucleotide sequence, control nucleotide sequence and wild type soybean plants were taken and spayed with 2,4-D dimethyl ammonium salt (2240 g ae/ha, four-folds concentration in field), agroxone (2240 g ae/ha, four-folds concentration in field) and blank solvent (water). Take statistics of the damage degree of each plant caused by herbicides according to the curling degree of leaves and the damage degree of growing point six hours ([…]), two days (2DAT), seven days (7DAT) and 14 days (14DAT) after spraying respectively: if leaves are flat like wild-type leaves and the growing point is intact, the damage degree is 0%; if leaves curl up and wilt and the growing point is died, the damage degree is 100%. There are three strains contained a transferred 24DT21 nucleotide sequence (S1, S2 and S3), two strains contained a transferred control sequence (S4 and S5) and one wild-type strain (CK1) in total; select 10˜15 plants from each strain for testing.

[5] = tested on: Soybean plants containing control nucleotide sequence (S4, S5); test: Herbicide-resistance effect of soybean plants, control sequence (spraying, damage degree); assay type: in vivo; details: 2240 g ae/ha (4x); for Average damage % 6 HAT: 6 hours after spraying; for Average damage % 2 DAT: 2 days after spraying; for Average damage % 7 DAT: 7 days after spraying; for Average damage % 14 DAT: 14 days after spraying
Procedure: as §3, §4

[6] = tested on: wild type soybean plants (CK1); test: Herbicide-resistance effect of wild type soybean (spraying, damage degree); assay type: in vivo; details: wild-type soybean strain CK1, 2240 g ae/ha (4x); for Average damage % 6 HAT: 6 hours after spraying; for Average damage % 2 DAT: 2 days after spraying; for Average damage % 7 DAT: 7 days after spraying; for Average damage % 14 DAT: 14 days after spraying
Procedure: as §3, §4

[7] = tested on: Corn plants containing 24DT21 nucleotide sequence (S6, S7, S8); test: Herbicide-resistance effect test of transgenic corn T1 plants (spraying, prop root development); assay type: in vivo; details: 8960 g ae/ha (16x), 21 days after spraying; for Abnormal development of brace roots / Normal development of brace roots: number of plants
Procedure: (§5) Herbicide resistance effects tests to 2,4-D dimethyl ammonium salt and agroxone of corn plants containing 24DT21 nucleotide sequence, control nucleotide sequence respectively and wild type corn plants (stages V3-V4) were performed respectively.
(§6) Corn plants containing 24DT21 nucleotide sequence, control nucleotide sequence respectively and wild type corn plants were taken and spayed with 2,4-D dimethyl ammonium salt (8960 g ae/ha, 16-folds concentration in field), agroxone (8960 g ae/ha, 16-folds concentration in field) and blank solvent (water) respectively. Prop root development was counted 21 days after spaying. Three strains (S6, S7 and S8) of corn plants transformed with 24DT21 nucleotide sequence, two strains (S9 and S10) of corn plants transformed with control nucleotide sequence and 1 strain of wild type (CK2) corn were selected and 10-15 plants from each stain were tested.

[8] = tested on: Corn plants containing control nucleotide sequence (S9, S10); test: Herbicide-resistance effect test of corn plants, control sequence (spraying, prop root development); assay type: in vivo; details: 8960 g ae/ha (16x), 21 days after spraying; for Abnormal development of brace roots / Normal development of brace roots: number of plants
Procedure: as §5, §6

[9] = tested on: wild type corn plants (CK2); test: Herbicide-resistance effect test of wild type corn (spraying, prop root development); assay type: in vivo; details: wild type corn strain CK2, 8960 g ae/ha (16x), 21 days after spraying; for Abnormal development of brace roots / Normal development of brace roots: number of plants
Procedure: as §5, §6

[10] = soybean strain S4 (control sequence)
[11] = soybean strain S5 (control sequence)
[12] = corn strain S9 (control sequence)
[13] = corn strain S10 (control sequence)

CNC.O=C(O)COc1ccc(Cl)cc1Cl [2,4-D dimethyl ammonium salt]
Non-resistant [1]: 4 | Low resistant [1]: 1 | Moderate resistant [1]: 3 | High resistant [1]: 24 | Non-resistant [2]: 32 | Low resistant [2]: 0 | Moderate resistant [2]: 0 | High resistant [2]: 0 | Non-resistant [3]: 32 | Low resistant [3]: 0 | Moderate resistant [3]: 0 | High resistant [3]: 0 | Average damage % 6 HAT ([4]; soybean strain S1 (24DT21)): 6% | Average damage % 2 DAT ([4]; soybean strain S1 (24DT21)): 4% | Average damage % 7 DAT ([4]; soybean strain S1 (24DT21)): 0% | Average damage % 14 DAT ([4]; soybean strain S1 (24DT21)): 0% | Average damage % 6 HAT ([4]; soybean strain S2 (24DT21)): 11% | Average damage % 2 DAT ([4]; soybean strain S2 (24DT21)): 4% | Average damage % 7 DAT ([4]; soybean strain S2 (24DT21)): 0% | Average damage % 14 DAT ([4]; soybean strain S2 (24DT21)): 0% | Average damage % 6 HAT ([4]; soybean strain S3 (24DT21)): 3% | Average damage % 2 DAT ([4]; soybean strain S3 (24DT21)): 0% | Average damage % 7 DAT ([4]; soybean strain S3 (24DT21)): 0% | Average damage % 14 DAT ([4]; soybean strain S3 (24DT21)): 0% | Average damage % 6 HAT [5, 10]: 46% | Average damage % 2 DAT [5, 10]: 76% | Average damage % 7 DAT [5, 10]: 96% | Average damage % 14 DAT [5, 10]: 100% | Average damage % 6 HAT [5, 11]: 53% | Average damage % 2 DAT [5, 11]: 77% | Average damage % 7 DAT [5, 11]: 91% | Average damage % 14 DAT [5, 11]: 100% | Average damage % 6 HAT [6]: 48% | Average damage % 2 DAT [6]: 72% | Average damage % 7 DAT [6]: 94% | Average damage % 14 DAT [6]: 100% | Proportion of normal development of brace roots ([7]; corn strain S6 (24DT21)): 100.00% | Abnormal development of brace roots ([7]; corn strain S6 (24DT21)): 0 | Normal development of brace roots ([7]; corn strain S6 (24DT21)): 12 | Proportion of normal development of brace roots ([7]; corn strain S7 (24DT21)): 100.00% | Abnormal development of brace roots ([7]; corn strain S7 (24DT21)): 0 | Normal development of brace roots ([7]; corn strain S7 (24DT21)): 13 | Proportion of normal development of brace roots ([7]; corn strain S8 (24DT21)): 100.00% | Abnormal development of brace roots ([7]; corn strain S8 (24DT21)): 0 | Normal development of brace roots ([7]; corn strain S8 (24DT21)): 11 | Proportion of normal development of brace roots [8, 12]: 0% | Abnormal development of brace roots [8, 12]: 12 | Normal development of brace roots [8, 12]: 0 | Proportion of normal development of brace roots [8, 13]: 0% | Abnormal development of brace roots [8, 13]: 11 | Normal development of brace roots [8, 13]: 0 | Proportion of normal development of brace roots [9]: 0% | Abnormal development of brace roots [9]: 15 | Normal development of brace roots [9]: 0

Cc1cc(Cl)ccc1OCC(=O)O [agroxone]
Non-resistant [1]: 7 | Low resistant [1]: 2 | Moderate resistant [1]: 2 | High resistant [1]: 21 | Non-resistant [2]: 32 | Low resistant [2]: 0 | Moderate resistant [2]: 0 | High resistant [2]: 0 | Non-resistant [3]: 32 | Low resistant [3]: 0 | Moderate resistant [3]: 0 | High resistant [3]: 0 | Average damage % 6 HAT ([4]; soybean strain S1 (24DT21)): 10% | Average damage % 2 DAT ([4]; soybean strain S1 (24DT21)): 5% | Average damage % 7 DAT ([4]; soybean strain S1 (24DT21)): 0% | Average damage % 14 DAT ([4]; soybean strain S1 (24DT21)): 0% | Average damage % 6 HAT ([4]; soybean strain S2 (24DT21)): 16% | Average damage % 2 DAT ([4]; soybean strain S2 (24DT21)): 11% | Average damage % 7 DAT ([4]; soybean strain S2 (24DT21)): 6% | Average damage % 14 DAT ([4]; soybean strain S2 (24DT21)): 0% | Average damage % 6 HAT ([4]; soybean strain S3 (24DT21)): 7% | Average damage % 2 DAT ([4]; soybean strain S3 (24DT21)): 4% | Average damage % 7 DAT ([4]; soybean strain S3 (24DT21)): 0% | Average damage % 14 DAT ([4]; soybean strain S3 (24DT21)): 0% | Average damage % 6 HAT [5, 10]: 38% | Average damage % 2 DAT [5, 10]: 69% | Average damage % 7 DAT [5, 10]: 87% | Average damage % 14 DAT [5, 10]: 100% | Average damage % 6 HAT [5, 11]: 47% | Average damage % 2 DAT [5, 11]: 74% | Average damage % 7 DAT [5, 11]: 92% | Average damage % 14 DAT [5, 11]: 100% | Average damage % 6 HAT [6]: 34% | Average damage % 2 DAT [6]: 61% | Average damage % 7 DAT [6]: 82% | Average damage % 14 DAT [6]: 100% | Proportion of normal development of brace roots ([7]; corn strain S6 (24DT21)): 100.00% | Abnormal development of brace roots ([7]; corn strain S6 (24DT21)): 0 | Normal development of brace roots ([7]; corn strain S6 (24DT21)): 11 | Proportion of normal development of brace roots ([7]; corn strain S7 (24DT21)): 100.00% | Abnormal development of brace roots ([7]; corn strain S7 (24DT21)): 0 | Normal development of brace roots ([7]; corn strain S7 (24DT21)): 12 | Proportion of normal development of brace roots ([7]; corn strain S8 (24DT21)): 100.00% | Abnormal development of brace roots ([7]; corn strain S8 (24DT21)): 0 | Normal development of brace roots ([7]; corn strain S8 (24DT21)): 13 | Proportion of normal development of brace roots [8, 12]: 0% | Abnormal development of brace roots [8, 12]: 13 | Normal development of brace roots [8, 12]: 0 | Proportion of normal development of brace roots [8, 13]: 0% | Abnormal development of brace roots [8, 13]: 10 | Normal development of brace roots [8, 13]: 0 | Proportion of normal development of brace roots [9]: 0% | Abnormal development of brace roots [9]: 15 | Normal development of brace roots [9]: 0
